Molecules are shown by their SMILES.

The experiment deals with T1, glucocorticoid receptor (GR) (Homo sapiens, UniProt P04150).
T1 construct: endogenous in cells; host or cells: HeLa (ATCC) cell lysate supernatant
T1 sequence (P04150 1-777): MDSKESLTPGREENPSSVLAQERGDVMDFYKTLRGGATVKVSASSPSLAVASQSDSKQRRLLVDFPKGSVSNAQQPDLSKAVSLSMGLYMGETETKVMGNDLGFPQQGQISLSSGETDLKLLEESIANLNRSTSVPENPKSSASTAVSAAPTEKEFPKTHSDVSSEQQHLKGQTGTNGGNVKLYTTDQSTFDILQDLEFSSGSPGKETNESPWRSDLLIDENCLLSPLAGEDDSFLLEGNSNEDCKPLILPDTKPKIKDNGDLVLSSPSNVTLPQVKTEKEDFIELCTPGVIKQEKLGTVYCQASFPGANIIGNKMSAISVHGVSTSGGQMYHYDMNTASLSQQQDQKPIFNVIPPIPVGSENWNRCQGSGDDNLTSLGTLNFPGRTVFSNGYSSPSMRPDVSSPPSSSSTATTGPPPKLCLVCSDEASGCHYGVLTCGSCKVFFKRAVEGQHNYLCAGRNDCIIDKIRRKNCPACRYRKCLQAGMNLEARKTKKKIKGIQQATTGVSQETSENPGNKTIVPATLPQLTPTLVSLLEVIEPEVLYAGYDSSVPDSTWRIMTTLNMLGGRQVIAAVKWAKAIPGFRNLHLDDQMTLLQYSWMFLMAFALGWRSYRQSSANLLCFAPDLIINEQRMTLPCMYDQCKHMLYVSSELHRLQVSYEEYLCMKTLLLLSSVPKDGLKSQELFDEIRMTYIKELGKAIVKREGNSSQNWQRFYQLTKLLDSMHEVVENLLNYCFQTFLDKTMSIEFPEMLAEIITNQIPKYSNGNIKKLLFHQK
The experiment can be described thus: GR Ligand Binding Assay (3H-dexamethasone displacement, HeLa cell lysate). The following applies: 3H-DEX trace, DEX as reference, read-out: GR BIND Ki. The protocol: Binding Buffer: TEGM (10 mM Tris-HCl, 1 mM EDTA, 10% glycerol, 1 mM beta-mecaptoethanol, 10 mM Sodium Molybdate, pH 7.2)
Dexmethasone-methyl-^3H, (DEX*); (Amersham cat# TRK645) Dexamethasone(DEX) (Sigma, cat# D1756):
Cells (Hall R. E., et al., European Journal of Cancer, 30A: 484-490 (1994)) HeLa (ATCC) cultured in RPMI 1640 (Gibco 11835-055) containing 20 mM Hepes, 4 mM L-glu, 10 ug/ml of human insulin (Sigma, I-0259), 10% FBS and 20 ug/ml of Gentamicin (Gibco#15710-072) are rinsed twice in PBS. Phenol red-free Trypsin-EDTA is diluted in the same PBS 1:10. The cell layers are rinsed with 1× Trypsin, extra Trypsin is poured out, and the cell layers are incubated at 37° C. for ˜2 min. The flask is tapped and checked for signs of cell detachment. Once the cells begin to slide off the flask, the complete media is added. The cells are counted at this point, then diluted to the appropriate concentration and split into flasks or dishes for further culturing (Usually 1:3 to 1:6 dilution).
When the cells are 70 to 85% confluent, they are detached as described above, and collected by centrifuging at 1000 g for 10 minutes at 4° C. The cell pellet is washed twice with TEGM (10 mM Tris-HCl, 1 mM EDTA, 10% glycerol, 1 mM beta-mercaptoethanol, 10 mM Sodium Molybdate, pH 7.2). After the final wash, the cells are resuspended in TEGM at a concentration of 10^7 cells/mL. The cell suspension is snap frozen in liquid nitrogen or ethanol/dry ice bath and transferred to −80° C. freezer on dry ice. Before setting up the binding assay, the frozen samples are left on ice-water to just thaw (˜1 hr). Then the samples are centrifuged at 12,500 g to 20,000 g for 30 min at 4° C. The supernatant is used to set-up assay right away. If using 50 μL of supernatant, the test compound can be prepared in 50 μL of the TEGM buffer.
1×TEGM buffer is prepared, and the isotope-containing assay mixture is prepared in the following order: EtOH (2% final concentration in reaction), ^3H-DEX (Amersham Biosciences) and 1×TEGM. [e.g. For 100 samples, 200 μL (100×2) of EtOH+4.25 μL of 1:10 ^3H—Dex stock+2300 μL (100×23) 1×TEGM]. The compound is serially diluted, e.g., if starting final conc. is 1 μM, and the compound is in 25 μL of solution, for duplicate samples, 75 μL of 4×1 μM solution is made and 3 μL of 100 μM is added to 72 μL of buffer, and 1:5 serial dilution.
25 μL, of 3H-DEX (6 nM) trace and 25 μL compound solution are first mixed together, followed by addition of 50 μL receptor solution. The reaction is gently mixed, spun briefly at about 200 rpm and incubated at 4° C. overnight. 100 μL of 50% HAP slurry is prepared and added to the incubated reaction which is then vortexed and incubated on ice for 5 to 10 minutes. The reaction mixture is vortexed twice more to resuspend HAP while incubating reaction. The samples in 96-well format are then washed in wash buffer using The FilterMate™ Universal Harvester plate washer (Packard). The washing process transfers HAP pellet containing ligand-bound expressed receptor to Unifilter-96 GF/B filter plate (Packard). The HAP pellet on the filter plate is incubated with 50 μL of MICROSCINT (Packard) scintillint for 30 minutes before being counted on the TopCount microscintillation counter (Packard). IC50s are calculated using DEX as a reference.
Broadly, the Ki is the equilibrium dissociation constant of an inhibitor or competing ligand from its target. In the case of `C[C@]12Cc3cnn(-c4ccc(F)cc4)c3C=C1CC[C@@]2(CO)CC(O)c1cccnc1` (single isomer, unassigned) [Example 15b], the Ki came to 8.3 nM.
For `C[C@]12Cc3cnn(-c4ccc(F)cc4)c3C=C1CC[C@@]2(CO)CC(O)c1ccncc1` (single isomer, unassigned) [Example 17a], the Ki stood at 6.4 nM.
Turning to `C[C@]12Cc3cnn(-c4ccc(F)cc4)c3C=C1CC[C@@]2(CO)CC(O)c1ccncc1` (single isomer, unassigned) [Example 17b], the Ki came out at 7.5 nM.
Then `C[C@]12Cc3cnn(-c4ccc(F)cc4)c3C=C1CC[C@@]2(CO)CC(O)C1CCCCC1` (single isomer, unassigned) [Example 18a, 1-cyclohexyl-2-[(4αS)-1-(4-fluorophenyl)-5-(hydroxymethyl)-4α-methyl-1,4,4α,5,6,7-hexahydrocyclopenta[f]indazol-5-yl]ethanol], with 1.7 nM.
Then `C[C@]12Cc3cnn(-c4ccc(F)cc4)c3C=C1CC[C@@]2(CO)CC(O)C1CCCCC1` (single isomer, unassigned) [Example 18b, 1-cyclohexyl-2-[(4αS)-1-(4-fluorophenyl)-5-(hydroxymethyl)-4α-methyl-1,4,4α,5,6,7-hexahydrocyclopenta[f]indazol-5-yl]ethanol], with 2.3 nM; and `C[C@]12Cc3cnn(-c4cccc(F)c4)c3C=C1CC[C@@]2(CO)CC(O)c1ccccn1` (single isomer, unassigned) [Example 19a], with 3.7 nM; and `C[C@]12Cc3cnn(-c4cccc(F)c4)c3C=C1CC[C@@]2(CO)CC(O)c1ccccn1` (single isomer, unassigned) [Example 19b], with 9 nM.
Then `C[C@]12Cc3cnn(-c4ccc(F)cc4)c3C=C1CC[C@@]2(CO)CC(O)C1CC1` (single isomer, unassigned) [Example 20a, 1-cyclopropyl-2-[(4αS)-1-(4-fluorophenyl)-5-(hydroxymethyl)-4α-methyl-1,4,4α,5,6,7-hexahydrocyclopenta[f]indazol-5-yl]ethanol], with 22.6 nM; and `C[C@]12Cc3cnn(-c4ccc(F)cc4)c3C=C1CC[C@@]2(CO)CC(O)C1CC1` (single isomer, unassigned) [Example 20b, 1-cyclopropyl-2-[(4αS)-1-(4-fluorophenyl)-5-(hydroxymethyl)-4α-methyl-1,4,4α,5,6,7-hexahydrocyclopenta[f]indazol-5-yl]ethanol], with 15.1 nM.
Consider `COc1cccnc1C(O)C[C@]1(CO)CCC2=Cc3c(cnn3-c3ccc(F)cc3)C[C@@]21C` (single isomer, unassigned) [Example 21a], for which the Ki came to 7.6 nM.
Take `COc1cccnc1C(O)C[C@]1(CO)CCC2=Cc3c(cnn3-c3ccc(F)cc3)C[C@@]21C` (single isomer, unassigned) [Example 21b]: the inhibitory constant (Ki) was 3.7 nM.
Then `C[C@]12Cc3cnn(-c4ccc(F)cc4)c3C=C1CC[C@@]2(CO)CC(O)c1ccc(F)cn1` (single isomer, unassigned) [Example 22a], with 2.3 nM; and `C[C@]12Cc3cnn(-c4ccc(F)cc4)c3C=C1CC[C@@]2(CO)CC(O)c1ccc(F)cn1` (single isomer, unassigned) [Example 22b], with 5.1 nM; and `C[C@]12Cc3cnn(-c4ccccc4)c3C=C1CC[C@@]2(CO)CC(O)c1ccccn1` (single isomer, unassigned) [Example 23a], with 7.7 nM.
Then `C[C@]12Cc3cnn(-c4ccccc4)c3C=C1CC[C@@]2(CO)CC(O)c1ccccn1` (single isomer, unassigned) [Example 23b], with 3.3 nM; and `COc1ccc(C(O)C[C@]2(CO)CCC3=Cc4c(cnn4-c4ccc(F)cc4)C[C@@]32C)nc1` (single isomer, unassigned) [Example 24a], with 3.1 nM.
Then `COc1ccc(C(O)C[C@]2(CO)CCC3=Cc4c(cnn4-c4ccc(F)cc4)C[C@@]32C)nc1` (single isomer, unassigned) [Example 24b], with 7.5 nM.

Source of the values: patent US20120095055A1, “HEXAHYDROCYCLOPENTYL[f]INDAZOLE 5-HYDROXYMETHYL ETHANOLS AND DERIVATIVES THEREOF AS SELECTIVE GLUCOCORTICOID RECEPTOR MODULATORS” (Merck Sharp & Dohme, Corp., priority 2009, published 2012).
